Measurements: patent US20220133672A1, “NOTCH INHIBITORS FOR THE TREATMENT OF VASCULAR MALFORMATIONS” (The University of North Carolina at Chapel Hill, priority 2018, published 2022)

Experiments:
[1] = tested on: hLEC migration; experiment: Scratch migration assay, hLEC; type: cell-based, human
Procedure: (§1) Scratch migration assay—Migration assay was performed as per Liang et al., 2007^36, HUVECs and hLECs were grown to confluence in 24 well dishes, and then scratched with a 200 μL pipette tip. […] Four fields per well were imaged at T=0 hrs and at T=24 hrs post-scratch or T=72 hrs for HUVECs and hLECs respectively using an Olympus IX-81 inverted microscope equipped with a QImaging Retiga 4000R camera at 4× magnification. The percent change in migration was calculated by measuring the open area of the scratch at the above mentioned time-points (ImageJ). Results shown are representative of four independent experiments with HUVECs and three for hLECs.

[2] = tested on: HUVEC tube/network formation; experiment: Tube formation assay in Matrigel matrix, HUVEC; type: cell-based, human; details: for inhibition of angiogenesis in Notch-expressing HUVECs / number of branch points per field: HUVEC; for number of branch points per field: all concentrations (2-20 μM); for network formation by HUVEC: lowest concentration (2 μM), 24 hrs
Procedure: Tube formation assay—This assay was performed based on the protocol by Arnaoutova and Kleinman, 2010^37.

[3] = tested on: Notch target gene Hey1 in HUVEC; experiment: Quantitative RT-PCR of Notch target gene Hey1 in HUVEC; type: cell-based, human; details: 24 hrs post treatment
Procedure: RNA was extracted from cultured HUVEC or hLEC cells either 24 hrs or 72 hrs post treatment respectively using TRIzol reagent (Ambion 15596026) followed by DNase (Promega M6101) treatment and cDNA prepared using iScript (BioRad 170-8890). Quantitative RT-PCR was done on StepOnePlus (ABI) using TaqMan Gene Expression Master Mix (ThermoFisher Scientific 4369016). Gene expression was assessed using human Single-tube assays (Thermo Fisher Scientific/Applied Biosystems): GAPDH (4310884E), ACTB (Hs99999903_m1) and HEY1 (Hs01114113_m1). Comparative ΔΔCT method was used to analyze relative gene expression with ExpressionSuite Software (Thermo Fisher Scientific). Expression was normalized to housekeeping controls GAPDH and ACTB.

[4] = tested on: human lymphatic endothelial cells (hLECs); experiment: Cell viability (trypan blue, Countess automated cell counter), hLEC; type: cell-based; details: for change of hLEC viability at concentrations less than 20 μM: concentrations lower than 20 μM, vs untreated controls
Procedure: (§2) Dermal human lymphatic endothelial cells (hLECs) from human neonates (HMVEC-dLyNeo-Der, Lonza CC-2812) and human umbilical venous endothelial cells (HUVEC, Lonza CC-2517) were used for in vitro assays (below) within 8 passages and maintained in EGM-2MV bullet kit (Lonza CC3202) and EGM bullet kit media respectively.
(§3) Cell viability: To examine the effect of GSI on cell viability, hLEC and HUVEC cultures were incubated with effects of graded concentrations [2, 4, 6, 8, 10, 20 μM] of DAPT (Selleckchem, S2215) or RO4909297 (Selleckchem, S1575) [2-20 μM] for 24-72 hours. The percentage of viable cells was determined using the Countess automated cell counter (Thermofisher, C10227). Briefly, 80-90% confluent HUVEC and hLEC cultures were trypsinized, washed, and 10 μL of cell sample was mixed with an equal amount of 0.4% trypan blue stain and loaded onto the counting chamber.

[5] = tested on: HUVEC migration; experiment: Scratch migration assay, HUVEC; type: cell-based, human
Procedure: as §1

[6] = Cell viability (trypan blue, Countess automated cell counter), hLEC; type: cell-based, human; details: human; 20 μM, hLEC; read-out: reduction of hLEC viability
Procedure: as §2, §3

| SMILES | hLEC migration reduced to ([1]; 8 μM, hLEC, 72 hrs post-scratch) | inhibition of angiogenesis in Notch-expressing HUVECs [2] | number of branch points per field [2] | network formation by HUVEC [2] | lowest concentration that downregulated Hey1 expression in HUVECs [3] [µM] | reduction of hLEC viability ([4]; 20 μM, hLEC) [%] | change of hLEC viability at concentrations less than 20 μM [4] | HUVEC migration reduced to ([5]; 8 μM, 24 hrs post-scratch) | effectiveness on hLEC migration compared with 8 μM DAPT ([1]; 6 μM, hLEC) | reduction of migration in hLECs ([1]; at lower concentrations compared to HUVECs) | cytotoxicity at 20 μM [6] [%] | effectiveness on HUVEC migration compared with 8 μM DAPT ([5]; 6 μM) |
| --- | --- | --- | --- | --- | --- | --- | --- | --- | --- | --- | --- | --- |
| C[C@H](NC(=O)Cc1cc(F)cc(F)c1)C(=O)N[C@H](C(=O)OC(C)(C)C)c1ccccc1 [DAPT, N-[N-(3,5-difluorophenacetyl-L-alanyl)]-S-phenylglycine t-butyl ester] | about 50% | effective in inhibiting angiogenesis | significantly reduced | dramatically reduced | 4 | ~30 | without significant changes | about 35% |  |  |  |  |
| CC(C)(C(=O)NCC(F)(F)C(F)(F)F)C(=O)N[C@@H]1C(=O)Nc2ccccc2-c2ccccc21 [RO4929097, 2,2-Dimethyl-N-[(7S)-6-oxo-6,7-dihydro-5H-dibenzo[b,d]azepin-7-yl]-N′-(2,2,3,3,3-pentafluoropropyl)malonamide] |  | effective in inhibiting angiogenesis | significantly reduced | dramatically reduced | 2 |  | without significant changes |  | more effective | greater than 50% | ~30 | more effective |
